Source: patent US20120122860A1, “SOLID FORMS OF SULFONAMIDES AND AMINO ACIDS” (Plexxikon, Inc., priority 2009, published 2012)

How the values were obtained:
Fms = Fms (Homo sapiens, UniProt P07333); assay: Kinase activity assay, Fms
Kdr = Kdr (Homo sapiens, UniProt P35968); assay: Kinase activity assay, Kdr
B-Raf = B-Raf (Homo sapiens, UniProt P15056); assay: Kinase activity assay, B-Raf; assay type: biochemical; details: read-out: activity toward kinase B-Raf, IC50
Btk = Btk (Homo sapiens, UniProt Q06187); assay: Kinase activity assay, Btk
Sequence of Btk (Q06187 whole entry): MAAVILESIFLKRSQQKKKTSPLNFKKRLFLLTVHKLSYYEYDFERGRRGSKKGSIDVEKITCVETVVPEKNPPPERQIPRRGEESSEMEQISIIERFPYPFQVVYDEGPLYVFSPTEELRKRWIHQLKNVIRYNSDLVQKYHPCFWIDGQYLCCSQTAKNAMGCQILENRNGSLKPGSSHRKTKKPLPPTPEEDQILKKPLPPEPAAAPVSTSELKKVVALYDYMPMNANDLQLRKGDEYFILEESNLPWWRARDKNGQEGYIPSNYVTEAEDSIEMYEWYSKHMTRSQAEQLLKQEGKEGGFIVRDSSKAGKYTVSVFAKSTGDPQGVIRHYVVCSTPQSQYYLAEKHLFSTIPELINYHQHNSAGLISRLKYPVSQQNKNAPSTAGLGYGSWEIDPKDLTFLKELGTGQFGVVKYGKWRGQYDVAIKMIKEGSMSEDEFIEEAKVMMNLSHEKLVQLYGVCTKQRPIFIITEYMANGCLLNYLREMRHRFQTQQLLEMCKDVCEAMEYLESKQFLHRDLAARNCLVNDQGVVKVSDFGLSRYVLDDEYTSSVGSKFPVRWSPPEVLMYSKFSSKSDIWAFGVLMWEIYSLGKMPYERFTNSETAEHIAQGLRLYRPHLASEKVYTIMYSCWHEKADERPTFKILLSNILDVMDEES

Flt1 = Flt1 (Homo sapiens, UniProt P17948); assay: Kinase activity assay, Flt1
Sequence of Flt1 (P17948 27-1338): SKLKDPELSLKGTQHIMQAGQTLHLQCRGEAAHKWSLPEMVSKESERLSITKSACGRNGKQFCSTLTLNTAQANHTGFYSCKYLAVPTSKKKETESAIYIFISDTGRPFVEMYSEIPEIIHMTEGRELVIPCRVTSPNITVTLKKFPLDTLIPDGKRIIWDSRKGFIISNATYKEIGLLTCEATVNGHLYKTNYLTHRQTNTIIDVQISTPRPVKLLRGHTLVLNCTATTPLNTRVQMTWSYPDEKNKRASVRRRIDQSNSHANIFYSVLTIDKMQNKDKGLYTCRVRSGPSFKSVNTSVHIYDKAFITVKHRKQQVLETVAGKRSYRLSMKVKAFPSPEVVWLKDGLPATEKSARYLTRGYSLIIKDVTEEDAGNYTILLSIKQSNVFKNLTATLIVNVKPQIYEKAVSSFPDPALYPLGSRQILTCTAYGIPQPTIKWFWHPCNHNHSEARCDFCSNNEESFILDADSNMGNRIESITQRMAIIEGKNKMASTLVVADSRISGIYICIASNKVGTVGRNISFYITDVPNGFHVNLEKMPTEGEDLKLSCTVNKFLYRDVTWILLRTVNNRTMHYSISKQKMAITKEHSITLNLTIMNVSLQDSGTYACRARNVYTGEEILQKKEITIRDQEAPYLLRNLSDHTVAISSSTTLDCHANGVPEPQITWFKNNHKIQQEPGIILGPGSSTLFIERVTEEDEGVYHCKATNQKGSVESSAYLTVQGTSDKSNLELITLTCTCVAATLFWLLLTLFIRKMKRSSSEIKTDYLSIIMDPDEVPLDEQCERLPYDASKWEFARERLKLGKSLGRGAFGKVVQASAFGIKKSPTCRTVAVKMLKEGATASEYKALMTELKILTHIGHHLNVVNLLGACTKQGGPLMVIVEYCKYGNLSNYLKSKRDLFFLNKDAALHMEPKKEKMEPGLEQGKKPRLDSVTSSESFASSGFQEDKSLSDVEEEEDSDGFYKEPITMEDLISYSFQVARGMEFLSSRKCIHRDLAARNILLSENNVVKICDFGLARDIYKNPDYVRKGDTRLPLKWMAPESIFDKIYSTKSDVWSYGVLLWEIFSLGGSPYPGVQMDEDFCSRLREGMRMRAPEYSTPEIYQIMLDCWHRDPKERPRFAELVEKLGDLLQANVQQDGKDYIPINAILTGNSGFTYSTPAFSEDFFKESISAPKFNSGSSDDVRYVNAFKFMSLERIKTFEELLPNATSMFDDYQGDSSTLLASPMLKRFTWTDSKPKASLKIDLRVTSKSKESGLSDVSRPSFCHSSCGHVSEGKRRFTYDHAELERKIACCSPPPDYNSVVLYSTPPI

TEC = target: T1, TEC (Homo sapiens, UniProt P42680); assay: Kinase activity assay, TEC
T1 sequence (P42680 1-631): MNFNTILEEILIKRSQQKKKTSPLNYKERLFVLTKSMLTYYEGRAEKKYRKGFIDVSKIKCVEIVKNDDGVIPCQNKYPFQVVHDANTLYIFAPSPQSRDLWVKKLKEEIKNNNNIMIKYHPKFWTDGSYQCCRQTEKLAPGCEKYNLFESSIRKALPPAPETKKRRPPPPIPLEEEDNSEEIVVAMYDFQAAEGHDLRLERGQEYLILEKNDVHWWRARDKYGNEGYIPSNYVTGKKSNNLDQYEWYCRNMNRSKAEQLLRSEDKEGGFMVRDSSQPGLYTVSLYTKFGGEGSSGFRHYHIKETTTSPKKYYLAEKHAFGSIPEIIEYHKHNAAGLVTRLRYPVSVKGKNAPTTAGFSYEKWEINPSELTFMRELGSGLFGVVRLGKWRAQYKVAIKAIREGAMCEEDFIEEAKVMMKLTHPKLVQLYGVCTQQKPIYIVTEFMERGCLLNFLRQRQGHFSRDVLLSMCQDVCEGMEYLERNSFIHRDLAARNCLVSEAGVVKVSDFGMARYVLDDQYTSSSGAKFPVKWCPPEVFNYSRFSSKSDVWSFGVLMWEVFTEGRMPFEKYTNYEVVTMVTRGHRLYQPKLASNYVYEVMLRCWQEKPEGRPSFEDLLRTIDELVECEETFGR

Kit = Kit (Homo sapiens, UniProt P10721); assay: Kinase activity assay, Kit
B-Raf V600E = B-Raf V600E (Homo sapiens, UniProt P15056, V600E); assay: Kinase activity assay, B-Raf V600E; assay type: biochemical; details: read-out: activity toward kinase B-Raf V600E, IC50
Sequence of B-Raf V600E (P15056 whole entry V600E): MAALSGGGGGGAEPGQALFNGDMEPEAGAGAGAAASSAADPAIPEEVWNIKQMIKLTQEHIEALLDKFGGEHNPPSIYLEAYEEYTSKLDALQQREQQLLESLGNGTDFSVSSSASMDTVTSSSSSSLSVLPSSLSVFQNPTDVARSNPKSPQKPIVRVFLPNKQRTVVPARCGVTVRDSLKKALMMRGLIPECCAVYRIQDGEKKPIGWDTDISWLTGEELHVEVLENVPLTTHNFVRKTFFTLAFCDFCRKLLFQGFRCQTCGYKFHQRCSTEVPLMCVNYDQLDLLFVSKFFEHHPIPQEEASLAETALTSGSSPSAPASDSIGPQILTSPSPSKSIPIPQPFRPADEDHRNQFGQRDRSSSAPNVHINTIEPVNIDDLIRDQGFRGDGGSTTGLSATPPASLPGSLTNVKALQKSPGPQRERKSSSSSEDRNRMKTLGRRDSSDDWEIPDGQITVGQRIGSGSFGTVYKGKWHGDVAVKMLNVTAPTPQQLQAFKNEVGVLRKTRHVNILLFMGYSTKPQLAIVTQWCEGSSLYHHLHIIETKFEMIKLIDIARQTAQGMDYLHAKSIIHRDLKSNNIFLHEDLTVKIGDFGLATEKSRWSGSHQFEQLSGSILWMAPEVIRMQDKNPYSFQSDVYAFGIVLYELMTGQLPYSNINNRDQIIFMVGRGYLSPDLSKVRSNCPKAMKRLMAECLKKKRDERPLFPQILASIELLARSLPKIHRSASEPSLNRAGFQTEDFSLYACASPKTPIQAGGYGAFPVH

MAP4K4 = MAP4K4 (Homo sapiens, UniProt O95819); assay: Kinase activity assay, MAP4K4
Src = Src (Homo sapiens, UniProt P12931); assay: Kinase activity assay, Src
Sequence of Src (P12931 whole entry): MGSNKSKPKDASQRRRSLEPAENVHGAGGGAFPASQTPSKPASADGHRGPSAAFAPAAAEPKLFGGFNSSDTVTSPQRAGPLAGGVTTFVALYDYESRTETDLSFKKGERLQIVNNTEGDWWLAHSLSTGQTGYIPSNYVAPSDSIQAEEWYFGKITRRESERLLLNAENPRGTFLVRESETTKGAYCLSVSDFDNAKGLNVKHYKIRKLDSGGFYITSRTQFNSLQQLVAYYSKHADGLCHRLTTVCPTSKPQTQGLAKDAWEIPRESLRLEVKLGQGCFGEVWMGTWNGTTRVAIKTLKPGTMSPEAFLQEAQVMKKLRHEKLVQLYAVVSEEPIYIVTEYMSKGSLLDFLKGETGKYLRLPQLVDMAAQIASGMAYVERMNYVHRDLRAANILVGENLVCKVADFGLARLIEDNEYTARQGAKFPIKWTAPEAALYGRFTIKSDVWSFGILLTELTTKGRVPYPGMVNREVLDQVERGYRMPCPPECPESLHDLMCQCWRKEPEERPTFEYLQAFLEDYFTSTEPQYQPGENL

PI3Kα = PI3Kα (Homo sapiens, UniProt P42336); assay: Kinase activity assay, PI3Kα
C-Raf = C-Raf (Homo sapiens, UniProt P04049); assay: Kinase activity assay, C-Raf
Sequence of C-Raf (P04049 whole entry): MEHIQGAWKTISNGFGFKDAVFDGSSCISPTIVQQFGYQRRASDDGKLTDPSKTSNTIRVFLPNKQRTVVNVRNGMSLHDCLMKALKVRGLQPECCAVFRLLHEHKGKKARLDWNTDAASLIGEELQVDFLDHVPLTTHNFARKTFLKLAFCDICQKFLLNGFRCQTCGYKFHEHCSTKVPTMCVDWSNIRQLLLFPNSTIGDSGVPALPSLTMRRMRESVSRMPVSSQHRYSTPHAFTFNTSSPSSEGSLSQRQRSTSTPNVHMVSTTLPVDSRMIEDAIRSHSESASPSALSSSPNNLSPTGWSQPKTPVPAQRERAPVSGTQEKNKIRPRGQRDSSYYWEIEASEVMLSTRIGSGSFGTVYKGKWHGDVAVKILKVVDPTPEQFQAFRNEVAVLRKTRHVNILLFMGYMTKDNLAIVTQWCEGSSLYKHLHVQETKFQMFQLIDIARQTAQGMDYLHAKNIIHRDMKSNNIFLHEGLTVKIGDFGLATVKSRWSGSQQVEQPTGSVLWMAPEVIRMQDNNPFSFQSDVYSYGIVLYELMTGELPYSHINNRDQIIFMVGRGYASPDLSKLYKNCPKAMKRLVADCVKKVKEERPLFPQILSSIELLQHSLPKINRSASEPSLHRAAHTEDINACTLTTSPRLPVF

A-Raf = target: T2, A-Raf (Homo sapiens, UniProt P10398); assay: Kinase activity assay, A-Raf
T2 sequence (P10398 1-606): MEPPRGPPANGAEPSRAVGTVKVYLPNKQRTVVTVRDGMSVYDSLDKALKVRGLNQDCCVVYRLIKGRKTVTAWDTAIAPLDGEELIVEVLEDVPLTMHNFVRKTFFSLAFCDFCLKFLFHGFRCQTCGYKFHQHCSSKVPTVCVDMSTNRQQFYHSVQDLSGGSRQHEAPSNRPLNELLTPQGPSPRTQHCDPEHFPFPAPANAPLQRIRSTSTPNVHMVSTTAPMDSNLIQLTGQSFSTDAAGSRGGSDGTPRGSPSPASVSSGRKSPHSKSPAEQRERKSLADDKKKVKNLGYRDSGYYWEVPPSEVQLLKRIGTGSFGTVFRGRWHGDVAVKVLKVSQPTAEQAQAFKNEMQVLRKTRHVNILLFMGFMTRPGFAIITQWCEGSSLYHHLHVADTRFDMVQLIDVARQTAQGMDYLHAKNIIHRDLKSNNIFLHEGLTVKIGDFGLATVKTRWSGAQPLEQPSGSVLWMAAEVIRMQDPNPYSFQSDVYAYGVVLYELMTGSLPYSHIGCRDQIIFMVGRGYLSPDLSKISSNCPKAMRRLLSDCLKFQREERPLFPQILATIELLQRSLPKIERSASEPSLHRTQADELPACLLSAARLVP

Measured: IC50

Sequence of Fms (P07333 20-972): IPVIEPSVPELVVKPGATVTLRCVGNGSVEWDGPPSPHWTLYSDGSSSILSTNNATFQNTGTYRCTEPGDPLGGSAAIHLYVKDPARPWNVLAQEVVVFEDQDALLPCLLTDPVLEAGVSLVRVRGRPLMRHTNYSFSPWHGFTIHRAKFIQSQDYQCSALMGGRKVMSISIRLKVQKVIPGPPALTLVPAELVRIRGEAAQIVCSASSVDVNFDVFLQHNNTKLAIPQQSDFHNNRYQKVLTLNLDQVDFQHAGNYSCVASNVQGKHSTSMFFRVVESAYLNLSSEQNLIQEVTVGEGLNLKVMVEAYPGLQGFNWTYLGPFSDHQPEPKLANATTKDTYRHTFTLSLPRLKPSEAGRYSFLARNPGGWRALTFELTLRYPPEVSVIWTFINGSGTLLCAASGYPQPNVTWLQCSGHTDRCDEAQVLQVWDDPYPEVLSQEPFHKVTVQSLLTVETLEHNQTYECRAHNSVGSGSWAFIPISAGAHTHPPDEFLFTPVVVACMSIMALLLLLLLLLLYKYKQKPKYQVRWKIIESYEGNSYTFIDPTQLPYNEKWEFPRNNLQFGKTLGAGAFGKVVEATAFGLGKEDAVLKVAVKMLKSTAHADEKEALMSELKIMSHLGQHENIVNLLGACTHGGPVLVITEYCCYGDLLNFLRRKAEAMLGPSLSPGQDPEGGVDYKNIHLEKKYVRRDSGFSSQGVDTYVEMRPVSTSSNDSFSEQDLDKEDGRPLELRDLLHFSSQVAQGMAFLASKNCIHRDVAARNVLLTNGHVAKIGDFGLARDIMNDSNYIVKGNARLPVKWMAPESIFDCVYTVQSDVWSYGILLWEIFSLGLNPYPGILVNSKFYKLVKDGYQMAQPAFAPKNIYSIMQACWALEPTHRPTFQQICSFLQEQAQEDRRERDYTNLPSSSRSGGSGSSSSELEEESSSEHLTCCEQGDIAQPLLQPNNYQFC
Sequence of B-Raf (P15056 whole entry): as the sequence (P15056 whole entry V600E) above, with E600V counted along it

Cn1cc(-c2cnc3[nH]cc(C(=O)c4c(F)ccc(NS(=O)(=O)c5cccc(OC(F)F)c5)c4Cl)c3c2)cn1 [P-2099, N-{2-Chloro-4-fluoro-3-[5-(1-methyl-1H-pyrazol-4-yl)-1H-pyrrolo[2,3-b]pyridine-3-carbonyl]-phenyl}-3-difluoromethoxy-benzenesulfonamide]
not listed: Src | PI3Kα | C-Raf | A-Raf
≤ 10 µM: all other assays above

Cn1cc(-c2cnc3[nH]cc(C(=O)c4cc(NS(=O)(=O)c5ccc(F)cc5)ccc4F)c3c2)cn1 [P-2100, 4-Fluoro-N-{4-fluoro-3-[5-(1-methyl-1H-pyrazol-4-yl)-1H-pyrrolo[2,3-b]pyridine-3-carbonyl]-phenyl}-benzenesulfonamide]
≤ 10 µM: Fms | Src | Kdr | Btk | Flt1 | Kit | B-Raf V600E

CCCS(=O)(=O)Nc1ccc(F)c(C(=O)c2c[nH]c3ncc(-c4ccc(NC(C)=O)nc4)cc23)c1F [P-2193, N-(5-{3-[2,6-Difluoro-3-(propane-1-sulfonylamino)-benzoyl]-1H-pyrrolo[2,3-b]pyridin-5-yl}-pyridin-2-yl)-acetamide]
not listed: Btk | TEC | A-Raf
≤ 10 µM: all other assays above

CCCS(=O)(=O)Nc1ccc(F)c(C(=O)c2c[nH]c3ncc(-c4cnc(N(C)C)nc4)cc23)c1F [P-2196, Propane-1-sulfonic acid {3-[5-(2-dimethylamino-pyrimidin-5-yl)-1H-pyrrolo[2,3-b]pyridine-3-carbonyl]-2,4-difluoro-phenyl}-amide]
≤ 10 µM: Src | Kdr | B-Raf | A-Raf | Flt1 | B-Raf V600E | C-Raf

CCCS(=O)(=O)Nc1ccc(F)c(C(=O)c2c[nH]c3ncc(-c4cnc(OC)nc4OC)cc23)c1F [P-2199, Propane-1-sulfonic acid {3-[5-(2,4-dimethoxy-pyrimidin-5-yl)-1H-pyrrolo[2,3-b]pyridine-3-carbonyl]-2,4-difluoro-phenyl}-amide]
not listed: Src | PI3Kα | A-Raf
≤ 10 µM: all other assays above

CCCS(=O)(=O)Nc1ccc(F)c(C(=O)c2c[nH]c3nccc(OC)c23)c1F [P-2210, Propane-1-sulfonic acid [2,4-difluoro-3-(4-methoxy-1H-pyrrolo[2,3-b]pyridine-3-carbonyl)-phenyl]-amide]
≤ 10 µM: Src | Kdr | B-Raf | A-Raf | Flt1 | B-Raf V600E | C-Raf

CCCS(=O)(=O)Nc1ccc(F)c(C(=O)c2c[nH]c3ncc(-c4ccc(OCCO)nc4)cc23)c1F [P-2215, Propane-1-sulfonic acid (2,4-difluoro-3-{5-[6-(2-hydroxy-ethoxy)-pyridin-3-yl]-1H-pyrrolo[2,3-b]pyridine-3-carbonyl}-phenyl)-amide]
not listed: Btk | TEC | PI3Kα | A-Raf
≤ 10 µM: all other assays above

CCCS(=O)(=O)Nc1ccc(F)c(C(=O)c2c[nH]c3ncc(-c4ccc(OCCCN(CC)CC)nc4)cc23)c1F [P-2216, Propane-1-sulfonic acid (3-{5-[6-(3-diethylamino-propoxy)-pyridin-3-yl]-1H-pyrrolo[2,3-b]pyridine-3-carbonyl}-2,4-difluoro-phenyl)-amide]
not listed: Btk | TEC | MAP4K4 | PI3Kα | A-Raf
≤ 10 µM: all other assays above

CC(C)CS(=O)(=O)Nc1ccc(F)c(C(=O)c2c[nH]c3ncc(-c4cnn(C)c4)cc23)c1F [P-2299, 2-Methyl-propane-1-sulfonic acid {2,4-difluoro-3-[5-(1-methyl-1H-pyrazol-4-yl)-1H-pyrrolo[2,3-b]pyridine-3-carbonyl]-phenyl}-amide]
not listed: MAP4K4 | PI3Kα | C-Raf | A-Raf
≤ 10 µM: all other assays above

CCCCS(=O)(=O)Nc1ccc(F)c(C(=O)c2c[nH]c3ncc(-c4cnn(C)c4)cc23)c1Cl [P-2430, Butane-1-sulfonic acid {2-chloro-4-fluoro-3-[5-(1-methyl-1H-pyrazol-4-yl)-1H-pyrrolo[2,3-b]pyridine-3-carbonyl]-phenyl}-amide]
not listed: Btk | Src | PI3Kα | A-Raf
≤ 10 µM: all other assays above

CCCCS(=O)(=O)Nc1ccc(F)c(C(=O)c2c[nH]c3ncc(-c4cnn(C)c4)cc23)c1 [P-2432, Butane-1-sulfonic acid {4-fluoro-3-[5-(1-methyl-1H-pyrazol-4-yl)-1H-pyrrolo[2,3-b]pyridine-3-carbonyl]-phenyl}-amide]
not listed: PI3Kα | A-Raf
≤ 10 µM: all other assays above

Cn1cc(-c2cnc3[nH]cc(C(=O)c4cc(NS(=O)(=O)C5CCCCC5)ccc4F)c3c2)cn1 [P-2434, Cyclohexanesulfonic acid {4-fluoro-3-[5-(1-methyl-1H-pyrazol-4-yl)-1H-pyrrolo[2,3-b]pyridine-3-carbonyl]-phenyl}-amide]
not listed: PI3Kα | A-Raf
≤ 10 µM: all other assays above

Cn1cc(-c2cnc3[nH]cc(C(=O)c4cccc(NS(=O)(=O)C5CCCCC5)c4)c3c2)cn1 [P-2457, Cyclohexanesulfonic acid {3-[5-(1-methyl-1H-pyrazol-4-yl)-1H-pyrrolo[2,3-b]pyridine-3-carbonyl]-phenyl}-amide]
not listed: B-Raf | PI3Kα | C-Raf | A-Raf
≤ 10 µM: all other assays above
